# In ChEMBL document CHEMBL1201862, “PubChem BioAssay data set” (2004):
# Calls of active or inactive are those of the source.
# Experiments:
# [1] = target: T1, Replicative DNA helicase DnaB (Mycobacterium tuberculosis, UniProt P9WMR3); assay: DnaB intein splicing inhibitors, dose response, biochemical, cell-free fluorescence (AID 449749); type: functional
# T1 sequence (P9WMR3 whole entry): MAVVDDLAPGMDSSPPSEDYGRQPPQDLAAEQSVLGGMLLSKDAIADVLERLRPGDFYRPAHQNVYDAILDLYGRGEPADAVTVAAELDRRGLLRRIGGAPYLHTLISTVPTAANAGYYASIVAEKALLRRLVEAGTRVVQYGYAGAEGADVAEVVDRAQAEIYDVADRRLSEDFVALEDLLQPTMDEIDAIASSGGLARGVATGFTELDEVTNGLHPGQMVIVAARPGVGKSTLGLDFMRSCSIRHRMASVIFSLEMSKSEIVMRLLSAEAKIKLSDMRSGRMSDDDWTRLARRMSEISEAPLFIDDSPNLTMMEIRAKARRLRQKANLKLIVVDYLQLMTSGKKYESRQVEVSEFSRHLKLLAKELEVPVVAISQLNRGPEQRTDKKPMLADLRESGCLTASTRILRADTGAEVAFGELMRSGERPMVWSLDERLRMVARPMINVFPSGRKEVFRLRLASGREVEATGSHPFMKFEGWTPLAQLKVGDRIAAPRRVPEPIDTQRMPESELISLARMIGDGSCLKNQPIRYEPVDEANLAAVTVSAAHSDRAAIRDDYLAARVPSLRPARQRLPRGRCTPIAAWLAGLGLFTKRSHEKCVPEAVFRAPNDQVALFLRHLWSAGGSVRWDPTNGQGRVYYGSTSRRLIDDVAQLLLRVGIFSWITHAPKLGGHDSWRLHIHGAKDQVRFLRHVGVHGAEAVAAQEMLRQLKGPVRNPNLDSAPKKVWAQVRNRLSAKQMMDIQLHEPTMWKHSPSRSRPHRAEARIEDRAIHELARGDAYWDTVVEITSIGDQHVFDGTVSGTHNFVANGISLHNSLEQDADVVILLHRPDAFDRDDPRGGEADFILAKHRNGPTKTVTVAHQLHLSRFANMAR
# Protein RecA = target: T2, Protein RecA (Mycobacterium tuberculosis, UniProt P9WHJ3); assay: Fluorescence Cell-Free Homogeneous Dose Retest to Identify Inhibitors of RecA-Intein Splicing Activity. [Related pubchem assays (depositor defined):AID2097, AID2223, AID489010, AID492950]; type: functional
# T2 sequence (P9WHJ3 whole entry): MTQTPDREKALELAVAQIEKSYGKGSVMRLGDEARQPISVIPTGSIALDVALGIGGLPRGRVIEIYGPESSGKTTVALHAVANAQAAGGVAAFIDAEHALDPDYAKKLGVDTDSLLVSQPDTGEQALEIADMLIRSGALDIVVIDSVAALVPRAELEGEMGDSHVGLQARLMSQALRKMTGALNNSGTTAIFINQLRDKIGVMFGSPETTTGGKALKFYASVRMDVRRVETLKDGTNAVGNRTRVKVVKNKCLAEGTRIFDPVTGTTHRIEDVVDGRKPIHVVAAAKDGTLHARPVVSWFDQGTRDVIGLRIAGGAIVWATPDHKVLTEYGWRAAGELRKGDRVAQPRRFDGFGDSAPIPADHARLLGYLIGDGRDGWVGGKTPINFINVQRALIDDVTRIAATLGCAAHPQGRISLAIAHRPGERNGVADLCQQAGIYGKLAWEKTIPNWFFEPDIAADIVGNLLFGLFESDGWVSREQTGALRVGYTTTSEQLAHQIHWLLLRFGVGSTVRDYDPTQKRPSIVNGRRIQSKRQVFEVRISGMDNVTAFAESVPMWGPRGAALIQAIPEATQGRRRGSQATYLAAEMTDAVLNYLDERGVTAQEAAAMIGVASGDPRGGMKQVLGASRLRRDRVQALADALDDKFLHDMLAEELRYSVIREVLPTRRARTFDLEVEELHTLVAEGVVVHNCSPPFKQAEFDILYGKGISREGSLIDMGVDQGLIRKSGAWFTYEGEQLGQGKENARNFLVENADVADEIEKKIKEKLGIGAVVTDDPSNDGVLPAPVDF
# [2] = target: SWI/SNF-related matrix-associated actin-dependent regulator of chromatin subfamily A member 2 (Homo sapiens, UniProt P51531); assay: Luminescence-based cell-based high throughput dose response assay to identify activators of the function of SWI/SNF related, matrix associated, actin dependent regulator of chromatin, subfamily a, member 2 (SMARCA2, BRM).; type: functional
# [3] = Counterscreen for activators of the function of SWI/SNF related, matrix associated, actin dependent regulator of chromatin, subfamily a, member 2 (SMARCA2, BRM): Luminescence-based cell-based high throughput dose response assay to identify non-selective compounds using the VP16 reporter assay.; type: functional
# Galanin receptor type 3 = Galanin receptor type 3 (Homo sapiens, UniProt O60755); assay: Fluorescence-based cell-based primary high throughput dose response assay to identify antagonists of the Galanin Receptor 3 (GalR3).; type: functional
# cells = type: functional, cell-based; details: HEK-CNG
# Cytochrome P450 2D6 = Cytochrome P450 2D6 (Homo sapiens, UniProt P10635);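 further: CYP2D6 member of a cytochrome P450 panel assay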
# Cytochrome P450 3A4 = Cytochrome P450 3A4 (Homo sapiens, UniProt P08684);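 further: CYP3A4 tested as one member of a cytochrome P450 panel screen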
# Cytochrome P450 2C9 = Cytochrome P450 2C9 (Homo sapiens, UniProt P11712)
# HEK293 [4] = assay: cells; details: Homo sapiens
# HEK293 [5] = assay: cells; details: Homo sapiens; remark: listed apart in the source
# [6] = Luminescence Cell-Based Dose Response to Identify Activators of 5'UTR Stem-Loop Driven Prion Protein mRNA Translation in H4-C Neuroglioblastoma Cells. [Related pubchem assays: 1829 (Project Summary), 1814 (Primary HTS)]; type: functional
# [7] = system: Streptococcus sp. 'group A'; assay: Streptococcus pyogenes SK(-)GAS viability under kanamycin – luminescence, BacTiterGlo, confirmation, counter-screen for streptokinase expression inhibitor project, dose response (AID 1900); type: functional, organism-based
# BJ [8] = assay: BJ-TERT fibroblast viability loss – cell-based, RAS-independent, luminescence, dose response (AID 1933); type: functional; details: Homo sapiens
# H4 = assay: Luminescence Cell-Based Dose Response HTS to Identify Activators of 5'UTR Stem-Loop Driven Prion Protein mRNA Translation in H4 Neuroglioblastoma Cells. [Related pubchem assays: 1829 (Project Summary), 1814 (Primary HTS)]; type: functional; details: Homo sapiens
# Streptokinase A = target: T3, Streptokinase A (Streptococcus pyogenes serotype M1, UniProt P10520); assay: viability-normalized secreted streptokinase activity reduction – plasminogen activation absorbance, OD405, dose response (AID 1914); type: functional, Streptococcus pyogenes M1 GAS;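 further: secreted streptokinase activity via plasminogen activation per viability signal from cell pellet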
# T3 sequence (P10520 whole entry): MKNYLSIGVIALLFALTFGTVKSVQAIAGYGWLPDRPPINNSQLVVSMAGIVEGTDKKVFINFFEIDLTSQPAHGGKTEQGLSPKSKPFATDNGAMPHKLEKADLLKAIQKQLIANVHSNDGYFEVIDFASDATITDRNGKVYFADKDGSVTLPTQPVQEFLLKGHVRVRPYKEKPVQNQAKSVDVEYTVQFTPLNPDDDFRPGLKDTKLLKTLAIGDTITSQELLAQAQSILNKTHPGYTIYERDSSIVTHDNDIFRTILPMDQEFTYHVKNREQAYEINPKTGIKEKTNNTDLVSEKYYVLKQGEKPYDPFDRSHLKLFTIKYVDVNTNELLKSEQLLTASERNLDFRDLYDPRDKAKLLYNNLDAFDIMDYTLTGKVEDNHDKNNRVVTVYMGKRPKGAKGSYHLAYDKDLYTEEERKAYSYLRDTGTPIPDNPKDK
# BJ [9] = assay: cells; type: functional, cell-based; details: Homo sapiens
# [10] = Luminescence Cell-Based Dose Response to Identify Activators of Luciferase Translation or Activity in H4-C Neuroglioblastoma Cells. [Related pubchem assays: 1829 (Project Summary), 1814 (Primary HTS)]; type: functional
# Beta-lactamase [11] = target: Beta-lactamase (Pseudomonas aeruginosa, UniProt Q79MP6);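 further: biochemical dose-response test of metallo-beta-lactamase enzyme inhibition, read out by epi-absorbance; purified recombinant IMP-1 metallo-beta-lactamase with nitrocefin as substrate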
# [12] = Luminescence Cell-Based Dose Confirmation to Identify Activators of 5'UTR Stem-Loop Driven Alpha-Synuclein mRNA Translation in H4 Neuroglioblastoma Cells. [Related pubchem assays: 1829 (Project Summary), 1814 (Primary HTS)]; type: functional
# BJ [13] = assay: BJ-TERT-LT-ST fibroblast viability loss – cell-based, RAS-independent, luminescence, dose response (AID 1935); type: functional; details: Homo sapiens;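 further: BJ fibroblasts immortalized with TERT plus LT and ST oncogenes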
# Beta-lactamase [14] = target: Beta-lactamase (Salmonella choleraesuis (strain SC-B67), UniProt Q5J463)
# [15] = DRD fibroblast viability loss – cell-based, non-viral oncogenic, luminescence, dose response (AID 1934); type: functional; details: Homo sapiens
# Streptococcus = assay: GAS UMAA2166 growth inhibition – luminescence, BacTiterGlo, counter-screen for streptokinase expression inhibitor project, dose response (AID 1915); type: functional, organism-based;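 further: potency for reduction of bacterial viability or growth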
# BJ [16] = assay: growth inhibition of engineered Ras-driven BJ cells – cell-based, alamar blue fluorescence, cherrypicked samples, dose response (AID 2631); type: functional; details: Homo sapiens;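 further: confirmatory dose-response assay in RAS-dependent BJ fibroblasts engineered with TERT, LT and ST, with cytotoxicity read by fluorescence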
# [17] = target: T4, Methionyl-tRNA synthetase, putative (Trypanosoma brucei brucei, UniProt Q38C91); type: functional, Trypanosoma brucei brucei strain 927/4 GUTat10.1
# T4 sequence (Q38C91 whole entry): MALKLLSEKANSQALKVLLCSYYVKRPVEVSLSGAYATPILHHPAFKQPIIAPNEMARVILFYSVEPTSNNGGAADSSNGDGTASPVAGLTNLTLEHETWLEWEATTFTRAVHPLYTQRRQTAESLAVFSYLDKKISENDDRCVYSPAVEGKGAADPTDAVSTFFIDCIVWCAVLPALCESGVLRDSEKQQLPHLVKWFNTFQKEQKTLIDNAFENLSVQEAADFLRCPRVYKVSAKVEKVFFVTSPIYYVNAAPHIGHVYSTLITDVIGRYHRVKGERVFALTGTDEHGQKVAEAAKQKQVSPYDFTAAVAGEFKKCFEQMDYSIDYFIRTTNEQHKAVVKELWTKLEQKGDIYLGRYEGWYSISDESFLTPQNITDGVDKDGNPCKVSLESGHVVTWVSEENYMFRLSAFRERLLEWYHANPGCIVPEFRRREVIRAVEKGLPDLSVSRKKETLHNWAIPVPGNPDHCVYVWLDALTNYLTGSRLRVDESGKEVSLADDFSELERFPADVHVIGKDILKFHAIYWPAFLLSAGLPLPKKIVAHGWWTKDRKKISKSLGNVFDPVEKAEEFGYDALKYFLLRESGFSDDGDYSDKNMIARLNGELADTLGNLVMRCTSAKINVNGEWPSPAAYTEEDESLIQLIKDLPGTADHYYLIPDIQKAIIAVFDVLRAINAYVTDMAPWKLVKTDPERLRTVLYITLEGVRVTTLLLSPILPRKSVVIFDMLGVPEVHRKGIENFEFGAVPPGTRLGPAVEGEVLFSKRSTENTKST
# [18] = Counterscreen for inhibitors of Trypanosoma brucei methionyl tRNA synthetase (MetRS): Luminescence-based cell-based high throughput dose response assay to identify compounds that are cytotoxic to Jurkat human T lymphocyte cells.; type: functional
# [19] = target: T4, Methionyl-tRNA synthetase, putative; type: functional, Trypanosoma brucei brucei strain 927/4 GUTat10.1; remark: listed apart in the source
# [20] = target: Fructose-bisphosphate aldolase (Mycobacterium tuberculosis, UniProt P9WQA3); assay: Fluorescence-based biochemical high throughput dose response assay for inhibitors of the fructose-bisphosphate aldolase (FBA) of M. tuberculosis.; type: functional
# Fructose-bisphosphate aldolase, sequence (P9WQA3 whole entry): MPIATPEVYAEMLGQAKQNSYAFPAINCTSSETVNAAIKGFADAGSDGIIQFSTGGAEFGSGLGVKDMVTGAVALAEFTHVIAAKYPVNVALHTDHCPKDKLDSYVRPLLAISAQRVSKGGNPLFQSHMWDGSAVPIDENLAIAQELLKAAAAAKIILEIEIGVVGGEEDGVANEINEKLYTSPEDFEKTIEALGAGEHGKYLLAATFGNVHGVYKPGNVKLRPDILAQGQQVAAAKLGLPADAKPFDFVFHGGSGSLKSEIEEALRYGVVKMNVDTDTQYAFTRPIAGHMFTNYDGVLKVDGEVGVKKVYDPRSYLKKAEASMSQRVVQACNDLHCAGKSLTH
# Cytochrome P450 2D6, sequence (P10635 whole entry): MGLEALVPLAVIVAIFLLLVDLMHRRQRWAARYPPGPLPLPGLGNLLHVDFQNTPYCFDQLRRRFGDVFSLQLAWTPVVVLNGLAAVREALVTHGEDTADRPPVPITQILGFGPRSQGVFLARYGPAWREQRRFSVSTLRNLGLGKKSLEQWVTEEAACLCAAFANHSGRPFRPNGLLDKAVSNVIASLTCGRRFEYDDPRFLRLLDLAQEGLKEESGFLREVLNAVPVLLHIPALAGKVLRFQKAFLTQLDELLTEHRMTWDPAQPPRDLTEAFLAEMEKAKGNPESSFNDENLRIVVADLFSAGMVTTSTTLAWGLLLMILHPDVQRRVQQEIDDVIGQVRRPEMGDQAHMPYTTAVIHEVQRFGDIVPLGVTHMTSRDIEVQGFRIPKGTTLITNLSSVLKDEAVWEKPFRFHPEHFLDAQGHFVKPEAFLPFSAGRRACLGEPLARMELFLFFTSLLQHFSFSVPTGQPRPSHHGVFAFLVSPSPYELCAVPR
# Beta-lactamase (Salmonella choleraesuis (strain SC-B67), UniProt Q5J463), sequence (Q5J463 whole entry): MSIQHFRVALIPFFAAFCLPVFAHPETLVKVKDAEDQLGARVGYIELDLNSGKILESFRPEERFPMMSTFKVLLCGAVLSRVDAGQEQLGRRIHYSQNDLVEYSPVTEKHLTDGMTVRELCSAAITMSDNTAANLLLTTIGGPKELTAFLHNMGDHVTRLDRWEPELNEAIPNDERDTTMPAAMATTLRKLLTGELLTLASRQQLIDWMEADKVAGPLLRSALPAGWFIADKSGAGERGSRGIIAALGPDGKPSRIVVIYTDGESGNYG
# Cytochrome P450 3A4, sequence (P08684 whole entry): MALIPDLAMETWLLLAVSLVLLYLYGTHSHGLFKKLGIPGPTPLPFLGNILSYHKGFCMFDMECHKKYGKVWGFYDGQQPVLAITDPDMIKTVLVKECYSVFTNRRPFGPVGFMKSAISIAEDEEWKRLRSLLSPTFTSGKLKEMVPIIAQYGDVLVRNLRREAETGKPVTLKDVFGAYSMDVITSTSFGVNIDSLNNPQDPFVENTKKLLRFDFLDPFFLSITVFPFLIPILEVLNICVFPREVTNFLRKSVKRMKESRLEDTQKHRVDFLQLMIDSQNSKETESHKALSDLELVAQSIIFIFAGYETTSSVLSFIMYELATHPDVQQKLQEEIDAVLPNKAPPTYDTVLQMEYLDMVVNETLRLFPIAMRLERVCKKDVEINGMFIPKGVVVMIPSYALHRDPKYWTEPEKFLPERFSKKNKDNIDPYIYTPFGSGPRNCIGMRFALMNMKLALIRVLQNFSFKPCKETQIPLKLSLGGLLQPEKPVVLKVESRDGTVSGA
# Cytochrome P450 2C9, sequence (P11712 whole entry): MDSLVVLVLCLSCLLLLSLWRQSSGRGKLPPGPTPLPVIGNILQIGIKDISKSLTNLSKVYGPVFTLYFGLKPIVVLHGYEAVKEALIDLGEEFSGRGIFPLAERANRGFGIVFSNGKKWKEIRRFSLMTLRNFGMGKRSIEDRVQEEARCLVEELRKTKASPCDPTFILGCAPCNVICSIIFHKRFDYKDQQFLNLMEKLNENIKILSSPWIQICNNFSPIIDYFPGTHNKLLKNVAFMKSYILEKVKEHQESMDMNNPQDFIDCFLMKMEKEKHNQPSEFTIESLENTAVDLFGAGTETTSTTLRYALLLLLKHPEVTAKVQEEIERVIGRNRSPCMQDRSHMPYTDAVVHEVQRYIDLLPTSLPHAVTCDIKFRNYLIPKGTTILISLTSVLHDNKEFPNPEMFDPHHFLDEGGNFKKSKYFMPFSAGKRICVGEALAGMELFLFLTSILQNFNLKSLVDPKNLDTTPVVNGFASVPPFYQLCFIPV
# Beta-lactamase (Pseudomonas aeruginosa, UniProt Q79MP6), sequence (Q79MP6 whole entry): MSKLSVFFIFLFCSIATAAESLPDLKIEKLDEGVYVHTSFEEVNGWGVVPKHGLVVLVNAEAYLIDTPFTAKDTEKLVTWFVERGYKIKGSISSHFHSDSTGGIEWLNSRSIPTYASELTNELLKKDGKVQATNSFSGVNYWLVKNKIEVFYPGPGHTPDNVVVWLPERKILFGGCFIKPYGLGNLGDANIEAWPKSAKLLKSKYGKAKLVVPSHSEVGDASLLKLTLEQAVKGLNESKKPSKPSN
# Galanin receptor type 3, sequence (O60755 whole entry): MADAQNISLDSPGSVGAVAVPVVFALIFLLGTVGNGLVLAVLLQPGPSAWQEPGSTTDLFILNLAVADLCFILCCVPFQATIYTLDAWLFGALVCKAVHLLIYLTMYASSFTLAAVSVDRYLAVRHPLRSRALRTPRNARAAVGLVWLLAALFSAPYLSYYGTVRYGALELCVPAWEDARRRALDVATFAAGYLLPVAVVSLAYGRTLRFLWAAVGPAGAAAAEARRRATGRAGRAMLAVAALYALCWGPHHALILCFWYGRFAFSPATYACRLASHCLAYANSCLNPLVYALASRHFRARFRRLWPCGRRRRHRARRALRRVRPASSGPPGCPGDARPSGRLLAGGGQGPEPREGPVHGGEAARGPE
# SWI/SNF-related matrix-associated actin-dependent regulator of chromatin subfamily A member 2, sequence (P51531 whole entry): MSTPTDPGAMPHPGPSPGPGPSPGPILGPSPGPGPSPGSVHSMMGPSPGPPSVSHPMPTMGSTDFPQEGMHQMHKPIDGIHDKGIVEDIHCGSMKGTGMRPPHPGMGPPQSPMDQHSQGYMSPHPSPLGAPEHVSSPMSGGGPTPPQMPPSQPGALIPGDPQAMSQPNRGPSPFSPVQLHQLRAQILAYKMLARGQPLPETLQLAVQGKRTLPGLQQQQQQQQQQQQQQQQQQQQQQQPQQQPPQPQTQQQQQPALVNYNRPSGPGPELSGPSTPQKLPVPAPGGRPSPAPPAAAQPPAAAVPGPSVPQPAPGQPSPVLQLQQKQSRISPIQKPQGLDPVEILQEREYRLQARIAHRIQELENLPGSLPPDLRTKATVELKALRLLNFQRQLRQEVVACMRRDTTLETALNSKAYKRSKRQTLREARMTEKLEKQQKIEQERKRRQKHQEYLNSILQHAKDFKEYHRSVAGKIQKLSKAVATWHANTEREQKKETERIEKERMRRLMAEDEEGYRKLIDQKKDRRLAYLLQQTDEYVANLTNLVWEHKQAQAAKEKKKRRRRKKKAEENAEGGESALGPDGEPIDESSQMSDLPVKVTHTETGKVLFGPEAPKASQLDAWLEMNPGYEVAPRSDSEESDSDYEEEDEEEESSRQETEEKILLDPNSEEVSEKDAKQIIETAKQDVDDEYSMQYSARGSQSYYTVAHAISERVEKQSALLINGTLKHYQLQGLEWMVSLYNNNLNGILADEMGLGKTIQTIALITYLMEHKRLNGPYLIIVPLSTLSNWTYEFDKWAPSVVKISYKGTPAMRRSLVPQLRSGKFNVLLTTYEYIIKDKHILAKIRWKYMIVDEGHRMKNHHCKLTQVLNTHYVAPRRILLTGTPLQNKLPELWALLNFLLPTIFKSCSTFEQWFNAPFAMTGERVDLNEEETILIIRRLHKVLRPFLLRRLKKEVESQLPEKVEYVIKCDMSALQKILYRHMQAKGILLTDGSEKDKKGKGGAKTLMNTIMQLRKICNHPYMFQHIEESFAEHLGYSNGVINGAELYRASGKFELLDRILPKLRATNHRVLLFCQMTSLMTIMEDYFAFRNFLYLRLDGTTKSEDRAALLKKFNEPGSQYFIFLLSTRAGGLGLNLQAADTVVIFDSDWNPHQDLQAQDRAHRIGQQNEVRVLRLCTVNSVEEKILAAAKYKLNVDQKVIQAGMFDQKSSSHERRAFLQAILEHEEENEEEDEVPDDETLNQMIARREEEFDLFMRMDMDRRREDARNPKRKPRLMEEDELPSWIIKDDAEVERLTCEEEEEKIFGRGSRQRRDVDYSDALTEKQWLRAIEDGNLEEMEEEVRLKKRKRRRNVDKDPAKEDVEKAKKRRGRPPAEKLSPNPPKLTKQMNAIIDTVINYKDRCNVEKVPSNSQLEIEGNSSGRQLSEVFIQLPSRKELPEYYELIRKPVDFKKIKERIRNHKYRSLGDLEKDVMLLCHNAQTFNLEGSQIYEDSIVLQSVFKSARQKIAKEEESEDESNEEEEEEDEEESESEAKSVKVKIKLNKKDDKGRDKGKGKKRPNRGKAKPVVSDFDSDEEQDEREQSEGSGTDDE
smiles,measurement,setting,value
Brc1ccc(Cn2c(-c3ccc(Br)o3)nc3ccccc32)o1,AC50,[1],147 µM (active)
same,EC50,Protein RecA,9.48 µM (active)
same,EC50,[2],> 91.2 µM (inactive)
same,EC50,[3],> 91.2 µM (inactive)
N#CCSc1nc(N)c(C#N)c(C2CCCCC2)c1C#N,IC50,Galanin receptor type 3,2.17 µM (active)
same,EC50,cells,> 29.9 µM (inactive)
same,AC50,Cytochrome P450 2D6,39.8 µM (inconclusive)
same,AC50,Cytochrome P450 3A4,3.16 µM (inconclusive)
same,AC50,Cytochrome P450 2C9,12.6 µM (inconclusive)
same,EC50,HEK293 [4],> 59.6 µM (inactive)
same,EC50,HEK293 [5],> 59.6 µM (inactive)
CCC(/C=C1\Sc2ccc3ccccc3c2N1C)=C\c1sc2ccc3ccccc3c2[n+]1C,EC50,[6],> 12 µM (not active)
same,EC50,[7],3.13 µM (active)
same,EC50,BJ [8],164 nM (active)
same,EC50,H4,> 120 µM (not active)
same,EC50,Streptokinase A,> 150 µM (not active)
same,EC50,BJ [9],352 nM (inconclusive)
same,EC50,[10],> 12 µM (not active)
same,IC50,Beta-lactamase [11],> 59.6 µM (inactive)
same,EC50,[12],3.46 µM (inconclusive)
same,EC50,BJ [13],343 nM (inconclusive)
same,IC50,Beta-lactamase [14],> 59.6 µM (inactive)
same,EC50,[15],395 nM (active)
same,EC50,Streptococcus,15.5 µM (active)
same,EC50,BJ [16],< 104 nM (active)
O=C(NCCc1ccc(Cl)cc1)Nc1ccc(Cl)cc1,IC50,[17],119 µM (inactive)
same,IC50,[18],83.3 µM (inactive)
same,IC50,[19],2.58 µM (active)
Cc1nn(-c2ccccc2)c(O)c1/C=N/c1cnc2ccccc2c1,IC50,[20],> 3.33 µM (active)
